# Results reported in EPA's ToxRefDB 2.
# What was measured:
# [1] = test system: rat; details: Multigenerational reproductive toxicity study, sprague dawley, Oral, Feed, dose end: 1 generation
# [2] = test system: mouse; details: Multigenerational reproductive toxicity study; cd1; Oral; Feed; dose end: 1 generation; group: parental; systemic / in life observation / food consumption / food consumption
# [3] = test system: rat; details: Combined chronic toxicity/carcinogenicity; sprague dawley; Oral; Feed; dose end: 118 week; group: systemic; systemic / in life observation / clinical signs / feces, discoloration
# [4] = test system: mouse; details: Combined chronic toxicity/carcinogenicity, cd1, Oral, Feed, dose end: 104 week, group: systemic
# [5] = test system: rat; details: Prenatal developmental toxicity study; other; Oral; Gavage/Intubation; dose end: 19 GD; group: developmental; developmental / developmental malformation / ureter / hydroureter
# [6] = test system: rat; details: Prenatal developmental toxicity study, Osborne-Mendel, Oral, Water, dose end: 20 GD
# [7] = test system: dog; details: Subchronic oral toxicity in nonrodent, beagle, [Not Specified], dose end: 4 week, group: systemic, systemic / clinical chemistry / alanine aminotransferase (alt/sgpt) / alanine aminotransferase (alt/sgpt) + systemic / clinical chemistry / …
# [8] = test system: mouse; details: Carcinogenicity, b6c3f1, Oral, Feed, dose end: 2 year, group: systemic
# [9] = test system: rat; details: Subchronic oral toxicity in rodents, wistar, Feed, dose end: 91 day, group: systemic, systemic / clinical chemistry / alanine aminotransferase (alt/sgpt) / alanine aminotransferase (alt/sgpt) + systemic / clinical chemistry / …
# [10] = test system: dog; details: Chronic toxicity; beagle; Oral; Feed; dose end: 52 week; group: systemic; systemic / clinical chemistry / cholesterol / cholesterol + systemic / clinical chemistry / creatinine / creatinine + systemic / clinical …
# [11] = test system: rat; details: Prenatal developmental toxicity study, wistar, Oral, Gavage/Intubation, dose end: 15 GD
# [12] = test system: dog; details: Chronic toxicity, beagle, Oral, Feed, dose end: 12 month, group: systemic
# [13] = test system: rat; details: Subchronic oral toxicity in rodents, wistar, Feed, dose end: 90 day, group: systemic
# [14] = test system: dog; details: Subchronic oral toxicity in nonrodent, beagle, Feed, dose end: 90 day, group: systemic
# [15] = test system: rat; details: Combined chronic toxicity/carcinogenicity; wistar; Oral; Feed; dose end: 2 year; group: systemic; systemic / clinical chemistry / alanine aminotransferase (alt/sgpt) / alanine aminotransferase (alt/sgpt) + systemic / clinical chemistry / …
# [16] = test system: rabbit; details: Prenatal developmental toxicity study, new zealand white, Oral, Gavage/Intubation, dose end: 19 GD
# [17] = test system: rat; details: Prenatal developmental toxicity study, sprague dawley, Oral, Gavage/Intubation, dose end: 15 GD
# [18] = test system: rat; details: Multigenerational reproductive toxicity study, sprague dawley, Oral, Feed, dose end: 2 generation
# [19] = test system: rat; details: Combined chronic toxicity/carcinogenicity, sprague dawley, Oral, Feed, dose end: 24 month, group: systemic
# [20] = test system: rabbit; details: Prenatal developmental toxicity study, new zealand white, Oral, Gavage/Intubation, dose end: 18 GD
# [21] = test system: dog; details: Chronic toxicity; beagle; Oral; Feed; dose end: 52 week; group: systemic; systemic / hematology / erythrocyte (rbc) count differential / erythrocyte (rbc) + systemic / hematology / platelet / platelet + systemic / …
# [22] = group: offspring, developmental / developmental landmark / vaginal opening / vaginal opening + systemic / in life observation / clinical signs / nocturnal …
# [23] = group: offspring, developmental / offspring survival late / [other] / [other] + developmental / developmental landmark / vaginal opening / vaginal opening + …
# [24] = group: parental, systemic / in life observation / body weight / body weight
# [25] = group: reproductive, reproductive / reproductive performance / pregnancy / pregnancy
# [26] = systemic / organ weight / thyroid gland / absolute + systemic / organ weight / thyroid gland / relative to body weight
# [27] = group: developmental, developmental / developmental malformation / bone / bipartite ossification + developmental / developmental malformation / bone / incomplete …
# [28] = group: maternal, systemic / in life observation / water consumption / water consumption + reproductive / reproductive performance / reproductive performance …
# [29] = group: developmental, developmental / developmental malformation / bone / incomplete ossification + developmental / developmental malformation / bone / …
# [30] = group: maternal, systemic / in life observation / body weight / body weight gain + systemic / in life observation / food consumption / food consumption + …
# [31] = systemic / clinical chemistry / cholesterol / cholesterol + systemic / clinical chemistry / creatinine / creatinine + systemic / clinical …
# [32] = systemic / pathology microscopic / pituitary gland / cyst
# [33] = systemic / hematology / blood clotting / blood clotting - clotting time + systemic / organ weight / kidney / absolute + systemic / organ …
# [34] = systemic / clinical chemistry / [other] / [other]
# [35] = systemic / clinical chemistry / [other] / [other] + systemic / clinical chemistry / alanine aminotransferase (alt/sgpt) / alanine …
# [36] = group: developmental, developmental / developmental malformation / bone / fused
# [37] = group: maternal, systemic / in life observation / body weight / body weight gain
# [38] = group: developmental, developmental / developmental malformation / bone / incomplete ossification
# [39] = group: maternal, systemic / in life observation / clinical signs / alopecia + systemic / in life observation / clinical signs / blood around eyes and nose + …
# [40] = group: offspring, systemic / in life observation / body weight / offspring (pup) weight
# [41] = group: parental, systemic / in life observation / body weight / body weight + systemic / in life observation / body weight / body weight gain + systemic / in…
# [42] = systemic / clinical chemistry / calcium / calcium + systemic / clinical chemistry / protein / protein + systemic / in life observation / …
# [43] = systemic / organ weight / liver / relative to body weight
# [44] = group: developmental, developmental / developmental malformation / bone / delayed ossification + developmental / developmental malformation / bone / fused + …
# [45] = group: maternal, reproductive / offspring survival early / live fetuses / live fetuses + systemic / organ weight / uterus / nos
smiles,measurement,setting,value
COc1cc(S(=O)(=O)[O-])c(C)cc1N=Nc1c(O)ccc2cc(S(=O)(=O)[O-])ccc12.[Na+].[Na+],LEL,[1]; [22],1250 mg/kg/day
same,NEL,[1]; [22],< 1250 mg/kg/day
same,LOAEL,[1]; [23],> 5000 mg/kg/day
same,NOAEL,[1]; [23],≥ 5000 mg/kg/day
same,LEL,[1]; [24],1250 mg/kg/day
same,LOAEL,[1]; [24],> 5000 mg/kg/day
same,NEL,[1]; [24],< 1250 mg/kg/day
same,NOAEL,[1]; [24],≥ 5000 mg/kg/day
same,LEL,[1]; [25],1250 mg/kg/day
same,LOAEL,[1]; [25],> 5000 mg/kg/day
same,NEL,[1]; [25],< 1250 mg/kg/day
same,NOAEL,[1]; [25],≥ 5000 mg/kg/day
same,LEL,[2],2930 mg/kg/day
same,LOAEL,[2],> 2930 mg/kg/day
same,NEL,[2],1420 mg/kg/day
same,NOAEL,[2],≥ 2930 mg/kg/day
same,LEL,[3],701 mg/kg/day
same,LOAEL,[3],> 2830 mg/kg/day
same,NEL,[3],180 mg/kg/day
same,NOAEL,[3],≥ 2830 mg/kg/day
same,LEL,[4]; systemic / in life observation / food consumption / food consumption,1880 mg/kg/day
same,NEL,[4]; systemic / in life observation / food consumption / food consumption + systemic / pathology microscopic / lymph node / lymphoma nos,507 mg/kg/day
same,LOAEL,[4]; [26],> 7320 mg/kg/day
same,NOAEL,[4]; [26],≥ 7320 mg/kg/day
same,LEL,[5],200 mg/kg/day
same,LOAEL,[5],> 200 mg/kg/day
same,NEL,[5],100 mg/kg/day
same,NOAEL,[5],≥ 200 mg/kg/day
same,LEL,[6]; [27],260 mg/kg/day
same,LOAEL,[6]; [27],> 260 mg/kg/day
same,NEL,[6]; [27],< 260 mg/kg/day
same,NOAEL,[6]; [27],≥ 260 mg/kg/day
same,LEL,[6]; [28],260 mg/kg/day
same,LOAEL,[6]; [28],> 260 mg/kg/day
same,NEL,[6]; [28],< 260 mg/kg/day
same,NOAEL,[6]; [28],≥ 260 mg/kg/day
Cc1cc(Cl)ccc1OCC(=O)O [MCPA],LEL,[7],8 mg/kg/day
same,LOAEL,[7],8 mg/kg/day
same,NEL,[7],< 8 mg/kg/day
same,NOAEL,[7],< 8 mg/kg/day
same,LEL,[8]; systemic / in life observation / body weight / body weight,15.7 mg/kg/day
same,NEL,[8]; systemic / in life observation / body weight / body weight + systemic / pathology microscopic / kidney / casts protein + systemic / …,3.2 mg/kg/day
same,LOAEL,[8]; systemic / pathology microscopic / kidney / hyperplasia,19.5 mg/kg/day
same,NOAEL,[8]; systemic / pathology microscopic / kidney / hyperplasia + systemic / in life observation / body weight / body weight + systemic / organ …,3.9 mg/kg/day
same,LEL,[9],177 mg/kg/day
same,LOAEL,[9],177 mg/kg/day
same,NEL,[9],34 mg/kg/day
same,NOAEL,[9],34 mg/kg/day
same,LEL,[10],1.02 mg/kg/day
same,LOAEL,[10],1.02 mg/kg/day
same,NEL,[10],0.21 mg/kg/day
same,NOAEL,[10],0.21 mg/kg/day
same,LEL,[11]; [29],120 mg/kg/day
same,LOAEL,[11]; [29],120 mg/kg/day
same,NEL,[11]; [29],60 mg/kg/day
same,NOAEL,[11]; [29],60 mg/kg/day
same,LEL,[11]; [30],120 mg/kg/day
same,LOAEL,[11]; [30],120 mg/kg/day
same,NEL,[11]; [30],60 mg/kg/day
same,NOAEL,[11]; [30],60 mg/kg/day
same,LOAEL,[12]; [31],1.02 mg/kg/day
same,NOAEL,[12]; [31],0.21 mg/kg/day
same,LEL,[12]; [32],0.2 mg/kg/day
same,NEL,[12]; [32],< 0.2 mg/kg/day
same,LOAEL,[13]; [33],32.6 mg/kg/day
same,NEL,[13]; [33],3.6 mg/kg/day
same,NOAEL,[13]; [33],10.9 mg/kg/day
same,LEL,[13]; systemic / organ weight / kidney / absolute,10.9 mg/kg/day
same,LEL,[14]; [34],3 mg/kg/day
same,LOAEL,[14]; [34],3 mg/kg/day
same,NEL,[14]; [35],1 mg/kg/day
same,NOAEL,[14]; [35],1 mg/kg/day
same,LEL,[15],5.7 mg/kg/day
same,LOAEL,[15],5.7 mg/kg/day
same,NEL,[15],1.4 mg/kg/day
same,NOAEL,[15],1.4 mg/kg/day
C#CCOS(=O)OC1CCCCC1Oc1ccc(C(C)(C)C)cc1 (stereo unspecified) [Propargite],LEL,[16]; [36],10 mg/kg/day
same,LOAEL,[16]; [36],10 mg/kg/day
same,NEL,[16]; [36],8 mg/kg/day
same,NOAEL,[16]; [36],8 mg/kg/day
same,LEL,[16]; [37],8 mg/kg/day
same,LOAEL,[16]; [37],8 mg/kg/day
same,NEL,[16]; [37],6 mg/kg/day
same,NOAEL,[16]; [37],6 mg/kg/day
same,LOAEL,"[17]; group: developmental, developmental / developmental malformation / bone / absent + developmental / developmental malformation / bone / small",25 mg/kg/day
same,LEL,[17]; [38],6 mg/kg/day
same,NEL,[17]; [38],< 6 mg/kg/day
same,NOAEL,"[17]; group: developmental, developmental / developmental malformation / bone / incomplete ossification + developmental / developmental malformation / bone / absent + …",6 mg/kg/day
same,LEL,[17]; [39],105 mg/kg/day
same,LOAEL,[17]; [39],> 450 mg/kg/day
same,NEL,[17]; [39],25 mg/kg/day
same,NOAEL,[17]; [39],≥ 450 mg/kg/day
same,LEL,[18]; [40],40 mg/kg/day
same,LOAEL,[18]; [40],40 mg/kg/day
same,NEL,[18]; [40],20 mg/kg/day
same,NOAEL,[18]; [40],20 mg/kg/day
same,LEL,[18]; [41],20 mg/kg/day
same,LOAEL,[18]; [41],20 mg/kg/day
same,NEL,[18]; [41],4 mg/kg/day
same,NOAEL,[18]; [41],4 mg/kg/day
same,LOAEL,[19]; [42],19.2 mg/kg/day
same,NOAEL,[19]; [42],3.83 mg/kg/day
same,LEL,[19]; [43],2.95 mg/kg/day
same,NEL,[19]; [43],< 2.95 mg/kg/day
same,LEL,"[20]; group: developmental, developmental / developmental malformation / bone / delayed ossification",6 mg/kg/day
same,LOAEL,[20]; [44],> 18 mg/kg/day
same,NEL,[20]; [44],2 mg/kg/day
same,NOAEL,[20]; [44],≥ 18 mg/kg/day
same,LEL,[20]; [45],2 mg/kg/day
same,NEL,[20]; [45],< 2 mg/kg/day
same,LOAEL,"[20]; group: maternal, systemic / in life observation / body weight / body weight gain + reproductive / offspring survival early / live fetuses / live fetuses",6 mg/kg/day
same,NOAEL,"[20]; group: maternal, systemic / in life observation / body weight / body weight gain + reproductive / reproductive performance / implantations / implantations + …",2 mg/kg/day
same,LEL,[21],38 mg/kg/day
same,LOAEL,[21],38 mg/kg/day
same,NEL,[21],5 mg/kg/day
same,NOAEL,[21],5 mg/kg/day
